“And” between values parts separate entries of the source, which are not always exact repeats. Equal entries are not always repeated. Inconclusive results and toxic doses are left out. The calls were made as follows: active = survival T/C of 150% or more; inactive = T/C below 125% in these data.
Test system: L1210 leukemia iv in BDF1 mice, survival T/C
Assay: NCI In Vivo Anticancer Drug Screen. Data for tumor model L1210 Leukemia (intravenous) in B6D2F1 (BDF1) mice
Settings: endpoint: mean survival time, higher = longer survival
Experimental: The antitumor activity of compounds was measured in mice bearing transplantable tumors. Survival or tumor size were measured and the results are expressed as the measurement made in the treated group (T) divided by the measurement made in the vehicle treated control group (C). The tumor model used in this assay is L1210 Leukemia (intravenous) in B6D2F1 (BDF1) mice

[1] = dose: 0.75 mg/kg/injection, schedule: Q01DX005 (iv), vehicle: saline
[2] = dose: 1.5 mg/kg/injection, schedule: Q01DX005 (iv), vehicle: saline
[3] = dose: 3.0 mg/kg/injection, schedule: Q01DX005 (iv), vehicle: saline
[4] = dose: 4.0 mg/kg/injection, schedule: Q01DX005 (iv), vehicle: saline
[5] = dose: 7.0 mg/kg/injection, schedule: Q01DX005 (iv), vehicle: saline

Measured: T/C

COc1cccc2c1C(=O)c1c(O)c3c(c(O)c1C2=O)CC(O)(C(=O)CO)CC3OC1CC(N)C(O)C(C)O1 (configuration not stated)
inactive: [1] 104 % of control | [2] 103 % of control | [3] 117 % of control | [4] 105 % of control | dose: 5.0 mg/kg/injection, schedule: Q01DX005 (iv), vehicle: saline 89 % of control | dose: 6.0 mg/kg/injection, schedule: Q01DX005 (iv), vehicle: saline 97 % of control | [5] 96 % of control | dose: 8.0 mg/kg/injection, schedule: Q01DX005 (iv), vehicle: saline 90 % of control

COc1cccc2c1C(=O)c1c(O)c3c(c(O)c1C2=O)C[C@@](O)(C(=O)CO)C[C@@H]3OC1CC(N)C(O)C(C)O1 (some centres not stated)
inactive: dose: 0.6 mg/kg/injection, schedule: Q01DX005 (iv), vehicle: clinical formulation 100 % of control | dose: 0.7 mg/kg/injection, schedule: Q01DX009 (ip), vehicle: clinical formulation 97 % of control | dose: 0.7 mg/kg/injection, schedule: Q01DX009 (sc), vehicle: clinical formulation 100 % of control | [1] 90 % of control | dose: 0.9 mg/kg/injection, schedule: Q01DX005 (iv), vehicle: clinical formulation 102 % of control | dose: 1.1 mg/kg/injection, schedule: Q01DX009 (ip), vehicle: clinical formulation 100 % of control | dose: 1.1 mg/kg/injection, schedule: Q01DX009 (sc), vehicle: clinical formulation 100 % of control | dose: 1.4 mg/kg/injection, schedule: Q01DX005 (iv), vehicle: clinical formulation 101 % of control | [2] 101 % of control | dose: 1.7 mg/kg/injection, schedule: Q01DX009 (ip), vehicle: clinical formulation 102 % of control | dose: 1.7 mg/kg/injection, schedule: Q01DX009 (sc), vehicle: clinical formulation 105 % of control | dose: 2.4 mg/kg/injection, schedule: Q01DX005 (iv), vehicle: clinical formulation 108 % of control | dose: 2.4 mg/kg/injection, schedule: Q01DX009 (ip), vehicle: clinical formulation 105 % of control | dose: 2.4 mg/kg/injection, schedule: Q01DX009 (sc), vehicle: clinical formulation 112 % of control | dose: 2.8 mg/kg/injection, schedule: Q01DX005 (iv), vehicle: clinical formulation 108 % of control and 117 % of control | [3] 114 % of control | dose: 3.6 mg/kg/injection, schedule: Q01DX009 (ip), vehicle: clinical formulation 110 % of control | dose: 3.6 mg/kg/injection, schedule: Q01DX009 (sc), vehicle: clinical formulation 119 % of control | [4] 86 % of control | dose: 4.2 mg/kg/injection, schedule: Q01DX005 (iv), vehicle: clinical formulation 123 % of control | dose: 6.3 mg/kg/injection, schedule: Q01DX005 (iv), vehicle: clinical formulation 124 % of control | [5] 87 % of control | dose: 9.4 mg/kg/injection, schedule: Q01DX005 (iv), vehicle: clinical formulation 115 % of control | dose: 14.1 mg/kg/injection, schedule: Q01DX005 (iv), vehicle: clinical formulation 113 % of control
active: dose: 2.5 mg/kg/injection, schedule: Q01DX005 (iv), vehicle: saline 196 % of control

CCOC(=O)C1CCC(NC(=O)N(CCCl)N=O)CC1 (configuration not stated)
inactive: dose: 4.0 mg/kg/injection, schedule: Q01DX001 (ip), vehicle: other 113 % of control and 100 % of control | dose: 8.0 mg/kg/injection, schedule: Q01DX001 (ip), vehicle: other 116 % of control
active: dose: 8.6 mg/kg/injection, schedule: Q04DX004 (ip), vehicle: gum acacia 274 % of control and 275 % of control | dose: 13.0 mg/kg/injection, schedule: Q04DX004 (ip), vehicle: gum acacia 254 % of control | dose: 16.0 mg/kg/injection, schedule: Q01DX001 (ip), vehicle: other 162 % of control and 193 % of control | dose: 20.0 mg/kg/injection, schedule: Q04DX004 (ip), vehicle: gum acacia 837 % of control | dose: 30.0 mg/kg/injection, schedule: Q04DX004 (ip), vehicle: gum acacia 1010 % of control | dose: 33.0 mg/kg/injection, schedule: Q01DX001 (ip), vehicle: other 465 % of control and 302 % of control | dose: 66.0 mg/kg/injection, schedule: Q01DX001 (ip), vehicle: other 663 % of control and 330 % of control
